Assay results reported in PMC8069832, “New Amides and Phosphoramidates Containing Selenium: Studies on Their Cytotoxicity and Antioxidant Activities in Breast Cancer” (Antioxidants, 2021).

Test system: HTB-54
Test: cells
Assay type: cell-based
Details: Homo sapiens, HTB-54, 48 h, read-out: LC50 HTB54
Description: (§1) Cell lines were provided by the European Collection of Cell Cultures (ECACC) or by the American Type Culture Collection (ATCC). Seven cell lines were used: MCF-7 (breast adenocarnicoma), 184B5 (nonmalignant, mammary gland derived), CCRF-CEM (lymphoblastic leukemia), HT-29 (colon carcinoma), HTB-54 (lung carcinoma), BEAS-2B (nonmalignant, derived from the bronchial epithelium) and PC-3 (prostate carcinoma). MCF-7, CCRF-CEM, HT-29, HTB-54, BEAS-2B and PC-3 cell lines were grown in RPMI medium (Gibco) supplemented with 10% fetal bovine serum (FBS; Gibco), 100 units/mL penicillin and […] streptomycin (Gibco). 184B5 cells were grown in DMEM/F12 medium supplemented with 5% FBS, 1 × ITS (Lonza), 100 nM hydrocortisone (Aldich), 2 mM sodium pyruvate (Lonza), 20 ng/mL EGF (Sigma-Aldrich), 0.3 nM trans-retinoic acid (Sigma-Aldrich), 100 units/mL penicillin and […] streptomycin. Cells were maintained at 37 °C and 5% CO2.
(§2) The cytotoxic effect of each substance was tested by the MTT method. Each compound was initially dissolved in DMSO at a concentration of 0.01 M, and serial dilutions were prepared with nonsupplemented medium. The cytotoxic effect of each compound was tested at 50 and 10 µM as a first screening. […]
(§3) A total of 1 × 10^4 cells/well in 96-well plates were treated with increasing concentrations of the corresponding compounds for 48 h at 37 °C in a humidified atmosphere containing 5% CO2. Then, cells were incubated with 50 µL of MTT (2 mg/mL stock) for 4 h. The medium was then removed by aspiration, and the formazan crystals were dissolved in […] of DMSO. […] Data were obtained from at least 3 independent experiments performed in quadruplicate. The standard error of the means (SEM) for the cytotoxic parameters was calculated applying the standard deviation formula to the mean values of each parameter for the three independent experiments performed.
(§4) . Cisplatin was used as a standard drug. […]. […] The presence of electron-withdrawing groups (-NO2, -CF3, -Cl) in the phenyl ring favored the cytotoxic activity in the amides, but in the phosphoramidates, the best results were obtained for aliphatic chains methoxy (II.1b, II.2b) and ethoxy (II.1d, II.2d). […].
Work on `O=C(Nc1ccc([Se][Se]c2ccc(NC(=O)c3ccco3)cc2)cc1)c1ccco1` [I.1h] yielded a CC50 of 76.3 ± 3.6 µM.

Same assay, conditions: Homo sapiens, HTB-54; 48 h, average ± SEM; read-out: GI50 HTB54
In the case of `O=C(Nc1ccc([Se][Se]c2ccc(NC(=O)c3ccco3)cc2)cc1)c1ccco1` [I.1h], the GI50 is reported as 20.8 ± 2.5 µM.

Same assay, conditions: Homo sapiens, HTB-54; 48 h, average ± SEM; read-out: TGI HTB54
Work on `O=C(Nc1ccc([Se][Se]c2ccc(NC(=O)c3ccco3)cc2)cc1)c1ccco1` [I.1h] yielded an IC (TGI) of 48.6 ± 1.8 µM.

Test system: PC-3
Test: cells
Assay type: cell-based
Details: Homo sapiens, PC-3, 48 h, read-out: LC50 PC-3
Description: as §1, §2, §3, §4
`O=C(Nc1ccc([Se][Se]c2ccc(NC(=O)c3ccco3)cc2)cc1)c1ccco1` [I.1h] gave an LC50 of 65.6 ± 4.1 µM.

Same assay, conditions: Homo sapiens, PC-3; 48 h, average ± SEM; read-out: GI50 PC-3
Compound `O=C(Nc1ccc([Se][Se]c2ccc(NC(=O)c3ccco3)cc2)cc1)c1ccco1` [I.1h] has a GI50 of 2.3 ± 0.3 µM.

Same assay, conditions: Homo sapiens, PC-3; 48 h, average ± SEM; read-out: TGI PC-3
`O=C(Nc1ccc([Se][Se]c2ccc(NC(=O)c3ccco3)cc2)cc1)c1ccco1` [I.1h] showed an IC (TGI) of 27.6 ± 2.8 µM.

Test system: not listed separately
Test: MTT cytotoxicity in nonmalignant mammary gland derived cells
Assay type: cell-based
Details: human
Description: as §1, §2, §3, §4
(§5) The lack of selectivity toward cancerous cells is one of the major issues during the discovery and development of new anticancer agents. Therefore, we evaluated the cytotoxic activity of our compounds against two cell lines derived from nonmalignant breast tissue (184B5) and no malignant bronchial epithelium (BEAS-2B) (Table 2). […].
In the case of `O=C(Nc1ccc([Se][Se]c2ccc(NC(=O)c3ccco3)cc2)cc1)c1ccco1` [I.1h], the LC50 (50% lethal concentration) at 48 h is reported as 74.4 µM.

Test system: 184B5
Test: as above
Assay type: cell-based
Details: Homo sapiens, 184B5; nonmalignant cells, 48 h; read-out: GI50 184B5
Description: as §1, §2, §3, §4, §5
For `O=C(Nc1ccc([Se][Se]c2ccc(NC(=O)c3ccco3)cc2)cc1)c1ccco1` [I.1h], the GI50 was 19.9 µM.

Same assay, conditions: Homo sapiens, 184B5; nonmalignant cells, 48 h; read-out: TGI 184B5
For `O=C(Nc1ccc([Se][Se]c2ccc(NC(=O)c3ccco3)cc2)cc1)c1ccco1` [I.1h], the IC (TGI) was 47.2 µM.

Same assay, conditions: breast
For `O=C(Nc1ccc([Se][Se]c2ccc(NC(=O)c3ccco3)cc2)cc1)c1ccco1` [I.1h], the “Selectivity index (SI) = GI50 (184B5)/GI50 (MCF-7)” value was 1.11.

Test system: not listed separately
Test: MTT cytotoxicity in nonmalignant bronchial epithelium cells
Assay type: cell-based
Details: human
Description: as §1, §2, §3, §4, §5
`O=C(Nc1ccc([Se][Se]c2ccc(NC(=O)c3ccco3)cc2)cc1)c1ccco1` [I.1h] showed an LC50 (50% lethal concentration) at 48 h of 70.7 µM.

Test system: BEAS-2B
Test: as above
Assay type: cell-based
Details: Homo sapiens, BEAS-2B; nonmalignant cells, 48 h; read-out: GI50 BEAS-2B
Description: as §1, §2, §3, §4, §5
Compound `O=C(Nc1ccc([Se][Se]c2ccc(NC(=O)c3ccco3)cc2)cc1)c1ccco1` [I.1h] has a GI50 of 10.6 µM.

Same assay, conditions: Homo sapiens, BEAS-2B; nonmalignant cells, 48 h; read-out: TGI BEAS-2B
In the case of `O=C(Nc1ccc([Se][Se]c2ccc(NC(=O)c3ccco3)cc2)cc1)c1ccco1` [I.1h], the IC (TGI) is reported as 40.6 µM.

Same assay, conditions: lung
In the case of `O=C(Nc1ccc([Se][Se]c2ccc(NC(=O)c3ccco3)cc2)cc1)c1ccco1` [I.1h], the “Selectivity index (SI) = GI50 (BEAS-2B)/GI50 (HTB-54)” value is reported as 0.51.

Test system: MCF-7
Test: cells
Details: Homo sapiens, MCF7, 48 h, read-out: Cell growth (%) MCF-7
Compound `O=C(Nc1ccc([Se][Se]c2ccc(NC(=O)c3ccco3)cc2)cc1)c1ccco1` [I.1h] has an activity at 10 µM of 63.5%.

Same assay, conditions: Homo sapiens, MCF7, 48 h, read-out: GI50 MCF-7, 48 h, average ± SEM
`O=C(Nc1ccc([Se][Se]c2ccc(NC(=O)c3ccco3)cc2)cc1)c1ccco1` [I.1h] gave a GI50 of 18 ± 2.3 µM.

Same assay, conditions: Homo sapiens, MCF7, 48 h, read-out: LC50 MCF-7
Work on `O=C(Nc1ccc([Se][Se]c2ccc(NC(=O)c3ccco3)cc2)cc1)c1ccco1` [I.1h] yielded a CC50 of 76.6 ± 2.5 µM.

Same assay, conditions: Homo sapiens, MCF7, 48 h, read-out: TGI MCF-7
For `O=C(Nc1ccc([Se][Se]c2ccc(NC(=O)c3ccco3)cc2)cc1)c1ccco1` [I.1h], the IC (TGI) was 47.3 ± 2.4 µM.

Test system: CCRF-CEM
Test: cells
Details: Homo sapiens, 48 h, read-out: Cell growth (%) CCRF-CEM
`O=C(Nc1ccc([Se][Se]c2ccc(NC(=O)c3ccco3)cc2)cc1)c1ccco1` [I.1h] showed an activity at 10 µM of 34.1%.

Same assay, conditions: Homo sapiens, 48 h, read-out: GI50 CCRF-CEM
With `O=C(Nc1ccc([Se][Se]c2ccc(NC(=O)c3ccco3)cc2)cc1)c1ccco1` [I.1h] the GI50 was 4.1 ± 2.4 µM.

Same assay, conditions: Homo sapiens, 48 h, read-out: LC50 CCRF-CEM
Work on `O=C(Nc1ccc([Se][Se]c2ccc(NC(=O)c3ccco3)cc2)cc1)c1ccco1` [I.1h] yielded a CC50 of 72.8 ± 2.9 µM.

Same assay, conditions: Homo sapiens, 48 h, read-out: TGI CCRF-CEM
In the case of `O=C(Nc1ccc([Se][Se]c2ccc(NC(=O)c3ccco3)cc2)cc1)c1ccco1` [I.1h], the IC (TGI) is reported as 36.1 ± 1.4 µM.

Test system: HT-29
Test: cells
Details: Homo sapiens, HT-29, 48 h, read-out: Cell growth (%) HT-29
In the case of `O=C(Nc1ccc([Se][Se]c2ccc(NC(=O)c3ccco3)cc2)cc1)c1ccco1` [I.1h], the activity at 10 µM is reported as 62.1%.

Same assay, conditions: Homo sapiens, HT-29, 48 h, read-out: GI50 HT-29
With `O=C(Nc1ccc([Se][Se]c2ccc(NC(=O)c3ccco3)cc2)cc1)c1ccco1` [I.1h] the GI50 was 17.4 ± 1.9 µM.

Same assay, conditions: Homo sapiens, HT-29, 48 h, read-out: LC50 HT-29
`O=C(Nc1ccc([Se][Se]c2ccc(NC(=O)c3ccco3)cc2)cc1)c1ccco1` [I.1h] showed a CC50 of 74.3 ± 0.7 µM.

Same assay, conditions: Homo sapiens, HT-29, 48 h, read-out: TGI HT-29
For `O=C(Nc1ccc([Se][Se]c2ccc(NC(=O)c3ccco3)cc2)cc1)c1ccco1` [I.1h], the IC (TGI) was 45.8 ± 1.2 µM.
